Test results taken from patent publication US20080255213A1, “THIAZOLIDINONE AMIDES, THIAZOLIDINE CARBOXYLIC ACID AMIDES, AND SERINE AMIDES, INCLUDING POLYAMINE CONJUGATES THEREOF, AS SELECTIVE ANTI-CANCER AGENTS” (University of Tennessee Research Foundation, priority 2007, published 2008).

What was measured:
Assay type in all cases: cell-based
[1] = test system: WM-164 melanoma cell line; assay: Sulforhodamine B (SRB) cytotoxicity assay, WM-164; conditions: Homo sapiens, WM164, 48 h exposure, diastereomeric mixtures, value ± standard error, read-out: IC50 ± SEM WM-164 (converted)
Protocol: (§1) Cytotoxicity of these newly synthesized compounds was examined in two human melanoma cell lines (SK-MEL-188 and WM-164) and in a fibroblast cell line. Activity on fibroblast cells was used as a control to determine the selectivity of these compounds against melanoma. Standard sulforhodamine B (SRB) assay was used. Cells were exposed to a wide range of concentrations for 48 h in round-bottom 96-well plates. Cells were fixed with 10% trichloroacetic acid and washed five times with water. After cells were air-dried overnight and stained with SRB solution, total proteins were measured at 560 nm with a plate reader. IC50 (i.e., concentration which inhibited cell growth by 50% of DMSO-treated controls) values were obtained by nonlinear regression analysis with GraphPad Prism (GraphPad Software, San Diego, Calif.).
(§2) The ability of thiazolidine derivatives to inhibit the growth of two melanoma cancer cell lines and fibroblast cells is summarized in Table 1. […] At this early stage, all compounds were used as a diastereomeric mixture if they contain chiral centers in order to select the most promising compounds for further development.

fibroblast cell line = assay: Sulforhodamine B (SRB) cytotoxicity assay, fibroblast control; conditions: 48 h exposure, control for selectivity, value ± standard error, read-out: IC50 ± SEM Fibroblast (converted)
Protocol: as §1, §2

[2] = test system: SK-MEL-188 melanoma cell line; assay: Sulforhodamine B (SRB) cytotoxicity assay, SK-MEL-188; conditions: Homo sapiens, 48 h exposure, diastereomeric mixtures, value ± standard error, read-out: IC50 ± SEM SK-MEL-188 (converted)
Protocol: as §1, §2

SMILES | IC50 [1] [nM] | IC50 (fibroblast cell line) [nM] | IC50 [2] [nM]
CCCCCCCCNC(=O)[C@@H]1CSC(c2cc(OC)c(OC)c(OC)c2)N1 (stereo partly drawn) [Compound 301, (4R)-2-(3,4,5-trimethoxyphenyl)-N-octylthiazolidine-4-carboxamide] | 19600 ± 900 | 20800 ± 10400 | 17100 ± 600
CCCCCCCCCCCCNC(=O)[C@@H]1CSC(c2cc(OC)c(OC)c(OC)c2)N1 (stereo partly drawn) [Compound 303, (4R)—N-dodecyl-2-(3,4,5-trimethoxyphenyl)thiazolidine-4-carboxamide] | 2400 | 2400 | 2100
CCCCCCCCCCCCCCNC(=O)[C@@H]1CSC(c2cc(OC)c(OC)c(OC)c2)N1 (stereo partly drawn) [Compound 304, (4R)-2-(3,4,5-trimethoxyphenyl)-N-tetradecylthiazolidine-4-carboxamide] | 1600 | 2600 | 2000
CCCCCCCCCCCCCCCCNC(=O)[C@@H]1CSC(c2cc(OC)c(OC)c(OC)c2)N1 (stereo partly drawn) [Compound 305, (4R)—N-hexadecyl-2-(3,4,5-trimethoxyphenyl)thiazolidine-4-carboxamide] | 700 | 2400 | 1800
CCCCCCCCCCCCNC(=O)[C@@H]1CSC(c2ccc(OC)c(OC)c2)N1 (stereo partly drawn) [Compound 307, (4R)—N-dodecyl-2-(3,4-dimethoxyphenyl)thiazolidine-4-carboxamide] | 1600 | 4500 | 2900
CCCCCCCCCCCCCCNC(=O)[C@@H]1CSC(c2ccc(OC)c(OC)c2)N1 (stereo partly drawn) [Compound 308, (4R)-2-(3,4-dimethoxyphenyl)-N-tetradecylthiazolidine-4-carboxamide] | 800 | 2800 | 1500
CCCCCCCCCCCCCCCCNC(=O)[C@@H]1CSC(c2ccc(OC)c(OC)c2)N1 (stereo partly drawn) [Compound 309, (4R)—N-hexadecyl-2-(3,4-dimethoxyphenyl)thiazolidine-4-carboxamide] | 500 | 2100 | 1500
CCCCCCCCCCCCNC(=O)[C@@H]1CSC(c2ccc3c(c2)OCO3)N1 (stereo partly drawn) [Compound 311, (4R)-2-(benzo[d][1,3]dioxol-5-yl)-N-dodecylthiazolidine-4-carboxamide] | 2500 | 5200 | 3500
CCCCCCCCCCCCCCNC(=O)[C@@H]1CSC(c2ccc3c(c2)OCO3)N1 (stereo partly drawn) [Compound 312, (4R)-2-(benzo[d][1,3]dioxol-5-yl)-N-tetradecylthiazolidine-4-carboxamide] | 1000 | 4200 | 1600
CCCCCCCCCCCCCCCCNC(=O)[C@@H]1CSC(c2ccc3c(c2)OCO3)N1 (stereo partly drawn) [Compound 313, (4R)-2-(benzo[d][1,3]dioxol-5-yl)-N-hexadecylthiazolidine-4-carboxamide] | 1800 | 5700 | 1600
CCCCCCCCCCCCNC(=O)[C@@H]1CSC(c2ccc(NC(C)=O)cc2)N1 (stereo partly drawn) [Compound 314, (4R)-2-(4-acetamidophenyl)-N-dodecylthiazolidine-4-carboxamide] | 1200 | 3500 | 2400
CCCCCCCCCCCCCCNC(=O)[C@@H]1CSC(c2ccc(NC(C)=O)cc2)N1 (stereo partly drawn) [Compound 315, (4R)-2-(4-acetamidophenyl)-N-tetradecylthiazolidine-4-carboxamide] | 600 | 3600 | 2300
CCCCCCCCCCCCCCCNC(=O)[C@@H]1CSC(c2ccc(NC(C)=O)cc2)N1 (stereo partly drawn) [Compound 316, (4R)-2-(4-acetamidophenyl)-N-pentadecylthiazolidine-4-carboxamide] | 1000 | 14300 | 1600
CCCCCCCCCCCCCCCCCNC(=O)[C@@H]1CSC(c2ccc(NC(C)=O)cc2)N1 (stereo partly drawn) [Compound 318, (4R)-2-(4-acetamidophenyl)-N-heptadecylthiazolidine-4-carboxamide] | 2400 | 35800 | 8500
